Test results from patent publication US9226916B2, “Pyrrolidine derivatives” (HOFFMANN-LA ROCHE INC., priority 2009, dated 2016).
Like-named read-outs stand apart in the source and are kept apart here.

Molecular target: T1, recombinant human NK3 receptor (Homo sapiens, UniProt P29371)
T1 construct: expressed in transfected cells; host or cells: HEK293 cells, transient expression; membranes
T1 sequence (P29371 1-465): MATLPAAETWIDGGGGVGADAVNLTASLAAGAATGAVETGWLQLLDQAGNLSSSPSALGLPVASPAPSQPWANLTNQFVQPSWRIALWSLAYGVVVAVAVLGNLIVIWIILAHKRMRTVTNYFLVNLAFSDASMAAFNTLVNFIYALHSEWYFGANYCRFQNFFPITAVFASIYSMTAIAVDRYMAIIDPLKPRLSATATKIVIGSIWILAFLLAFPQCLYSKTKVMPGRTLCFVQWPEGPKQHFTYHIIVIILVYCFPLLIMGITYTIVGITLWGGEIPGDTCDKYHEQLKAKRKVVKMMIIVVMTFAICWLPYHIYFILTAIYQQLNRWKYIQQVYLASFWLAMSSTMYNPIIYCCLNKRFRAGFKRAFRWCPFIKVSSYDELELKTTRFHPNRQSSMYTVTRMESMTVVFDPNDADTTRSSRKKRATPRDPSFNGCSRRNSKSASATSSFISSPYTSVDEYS
Experiment: [3H]SR142801 competition binding assay

Ki (hNK-3 receptor affinity, membranes from HEK293 cells transiently expressing recombinant human NK3 receptor, [3H]SR142801, Cheng-Prussoff, read-out: Data Ki) [nM] | Compound | Ki [nM]
 | CN(C(=O)Oc1ccc(F)cc1)[C@H]1CN(C(=O)[C@H]2CC[C@H](O)CC2)C[C@@H]1c1ccc(Cl)c(Cl)c1 (racemic) [Example 37, rac-[(3R,4S)-4-(3,4-Dichloro-phenyl)-1-(trans-4-hydroxy-cyclohexanecarbonyl)-pyrrolidin-3-yl]-methyl-carbamic acid 4-fluoro-phenyl ester] | 0.7
 | CN(C(=O)Oc1ccc(F)cc1)[C@H]1CN(C(=O)C2CCN(C(=O)C3(C)CC3)CC2)C[C@H]1c1ccc(Cl)c(Cl)c1 (racemic) [Example 40, rac-{(3R,4R)-4-(3,4-Dichloro-phenyl)-1-[1-(1-methyl-cyclopropanecarbonyl)-piperidine-4-carbonyl]-pyrrolidin-3-yl}-methyl-carbamic acid 4-fluoro-phenyl ester] | 4.2
 | CC1(C(=O)N2CCC(C(=O)N3C[C@H](NC(=O)Oc4ccc(F)cc4)[C@@H](c4ccc(Cl)c(Cl)c4)C3)CC2)CC1 (racemic) [Example 43, rac-{(3R,4S)-4-(3,4-Dichloro-phenyl)-1-[1-(1-methyl-cyclopropanecarbonyl)-piperidine-4-carbonyl]-pyrrolidin-3-yl}-carbamic acid 4-fluoro-phenyl ester] | 3.4
 | CN(C(=O)Oc1ccc(F)cc1)[C@H]1CN(C(=O)C2CCOCC2)C[C@@H]1c1ccc(Cl)c(Cl)c1 (racemic) [Example 44, rac-[(3R,4S)-4-(3,4-Dichloro-phenyl)-1-(tetrahydro-pyran-4-carbonyl)-pyrrolidin-3-yl]-methyl-carbamic acid 4-fluoro-phenyl ester] | 2.9
 | CN(C(=O)Oc1ccc(F)cc1)[C@H]1CN(C(=O)[C@H]2CC[C@@H](O)CC2)C[C@@H]1c1ccc(Cl)c(Cl)c1 (racemic) [Example 47, rac-[(3R,4S)-4-(3,4-Dichloro-phenyl)-1-(cis-4-hydroxy-cyclohexanecarbonyl)-pyrrolidin-3-yl]-methyl-carbamic acid 4-fluoro-phenyl ester] | 3.4
 | CN(C(=O)Oc1ccc(F)cc1)[C@H]1CN(C(=O)N2CCOCC2)C[C@@H]1c1ccc(Cl)c(Cl)c1 (racemic) [Example 48, rac-[(3R,4S)-4-(3,4-Dichloro-phenyl)-1-(morpholine-4-carbonyl)-pyrrolidin-3-yl]-methyl-carbamic acid 4-fluoro-phenyl ester] | 29.4
 | CO[C@H]1CC[C@@H](C(=O)N2C[C@H](c3ccc(Cl)c(Cl)c3)[C@@H](N(C)C(=O)Oc3ccc(F)cc3)C2)CC1 (racemic) [Example 49, rac-[(3R,4S)-4-(3,4-Dichloro-phenyl)-1-(cis-4-methoxy-cyclohexanecarbonyl)-pyrrolidin-3-yl]-methyl-carbamic acid 4-fluoro-phenyl ester] | 3.5
 | CN(C(=O)Oc1ccc(F)cc1)[C@H]1CN(C(=O)[C@H]2CC[C@](C)(O)CC2)C[C@@H]1c1ccc(Cl)c(Cl)c1 (racemic) [Example 52, rac-[(3R,4S)-4-(3,4-Dichloro-phenyl)-1-(trans-4-hydroxy-4-methyl-cyclohexanecarbonyl)-pyrrolidin-3-yl]-methyl-carbamic acid 4-fluoro-phenyl ester] | 8.1
 | CN(C(=O)Oc1ccc(F)cc1)[C@H]1CN(C(=O)[C@H]2CC[C@@](C)(O)CC2)C[C@@H]1c1ccc(Cl)c(Cl)c1 (racemic) [Example 53, rac-[(3R,4S)-4-(3,4-Dichloro-phenyl)-1-(cis-4-hydroxy-4-methyl-cyclohexanecarbonyl)-pyrrolidin-3-yl]-methyl-carbamic acid 4-fluoro-phenyl ester] | 4.7
 | CN(C(=O)Oc1ccc(F)cc1)[C@H]1CN(C(=O)CCC(N)=O)C[C@@H]1c1ccc(Cl)c(Cl)c1 (racemic) [Example 55, rac-[(3R,4S)-1-(3-Carbamoyl-propionyl)-4-(3,4-dichloro-phenyl)-pyrrolidin-3-yl]-methyl-carbamic acid 4-fluoro-phenyl ester] | 86.1
 | CN(C(=O)Oc1ccc(F)cc1)[C@H]1CN(C(=O)CCN2CCCC2=O)C[C@@H]1c1ccc(Cl)c(Cl)c1 (racemic) [Example 56, rac-{(3R,4S)-4-(3,4-Dichloro-phenyl)-1-[3-(2-oxo-pyrrolidin-1-yl)-propionyl]-pyrrolidin-3-yl}-methyl-carbamic acid 4-fluoro-phenyl ester] | 61.3
 | CN(C(=O)O[C@H]1CC[C@H](C)CC1)[C@H]1CN(C(=O)C2CCN(C(=O)C3(C)CC3)CC2)C[C@@H]1c1ccc(Cl)cc1 (racemic) [Example 57, rac-{(3R,4S)-4-(4-Chloro-phenyl)-1-[1-(1-methyl-cyclopropanecarbonyl)-piperidine-4-carbonyl]-pyrrolidin-3-yl}-methyl-carbamic acid 4-methyl-cyclohexyl ester] | 7.6
 | CC(=O)N1CCC(C(=O)N2C[C@H](c3ccc(Cl)c(Cl)c3)[C@@H](N(C)C(=O)Oc3ccc(F)cc3)C2)CC1 (racemic) [Example 65, rac-[(3R,4S)-1-(1-Acetyl-piperidine-4-carbonyl)-4-(3,4-dichloro-phenyl)-pyrrolidin-3-yl]-methyl-carbamic acid 4-fluoro-phenyl ester] | 0.7
 | CN(C(=O)Oc1ccc(F)cc1)[C@H]1CN(C(=O)C2CCN(C(=O)OC(C)(C)C)CC2)C[C@@H]1c1ccc(Cl)c(Cl)c1 (racemic) [Example 66, rac-4-{(3S,4R)-3-(3,4-Dichloro-phenyl)-4-[(4-fluoro-phenoxycarbonyl)-methyl-amino]-pyrrolidine-1-carbonyl}-piperidine-1-carboxylic acid tert-butyl ester] | 0.8
0.4 | CN(C(=O)OCCCC(F)(F)F)[C@H]1CN(C(=O)C2CCN(C(=O)C3(C)CC3)CC2)C[C@@H]1c1ccc(Cl)c(Cl)c1 (racemic) [Example 67, rac-{(3R,4S)-4-(3,4-Dichloro-phenyl)-1-[1-(1-methyl-cyclopropanecarbonyl)-piperidine-4-carbonyl]-pyrrolidin-3-yl}-methyl-carbamic acid 4,4,4-trifluoro-butyl ester] | 
 | Cc1ccc([C@H]2CN(C(=O)C3CCN(C(=O)C4(C)CC4)CC3)C[C@@H]2N(C)C(=O)Oc2ccc(F)cc2)cc1Cl (racemic) [Example 70, rac-{(3R,4S)-4-(3-Chloro-4-methyl-phenyl)-1-[1-(1-methyl-cyclopropanecarbonyl)-piperidine-4-carbonyl]-pyrrolidin-3-yl}-methyl-carbamic acid 4-fluoro-phenyl ester] | 1.3
 | Cc1cc([C@H]2CN(C(=O)C3CCN(C(=O)C4(C)CC4)CC3)C[C@@H]2N(C)C(=O)Oc2ccc(F)cc2)ccc1Cl (racemic) [Example 71, rac-{(3R,4S)-4-(4-Chloro-3-methyl-phenyl)-1-[1-(1-methyl-cyclopropanecarbonyl)-piperidine-4-carbonyl]-pyrrolidin-3-yl}-methyl-carbamic acid 4-fluoro-phenyl ester] | 1.8
 | CN(C(=O)Oc1ccc(F)cc1)[C@H]1CN(C(=O)C2CCNCC2)C[C@@H]1c1ccc(Cl)c(Cl)c1 (racemic) [Example 72, rac-[(3R,4S)-4-(3,4-Dichloro-phenyl)-1-(piperidine-4-carbonyl)-pyrrolidin-3-yl]-methyl-carbamic acid 4-fluoro-phenyl ester] | 21.2
 | CCC(=O)N1CCC(C(=O)N2C[C@H](c3ccc(Cl)c(Cl)c3)[C@@H](N(C)C(=O)Oc3ccc(F)cc3)C2)CC1 (racemic) [Example 73, rac-[(3R,4S)-4-(3,4-Dichloro-phenyl)-1-(1-propionyl-piperidine-4-carbonyl)-pyrrolidin-3-yl]-methyl-carbamic acid 4-fluoro-phenyl ester] | 0.8
 | CN(C(=O)Oc1ccc(F)cc1)[C@H]1CN(C(=O)C2CCN(C(=O)C3CC3)CC2)C[C@@H]1c1ccc(Cl)c(Cl)c1 (racemic) [Example 74, rac-[(3R,4S)-1-(1-Cyclopropanecarbonyl-piperidine-4-carbonyl)-4-(3,4-dichloro-phenyl)-pyrrolidin-3-yl]-methyl-carbamic acid 4-fluoro-phenyl ester] | 0.8
 | COCC(=O)N1CCC(C(=O)N2C[C@H](c3ccc(Cl)c(Cl)c3)[C@@H](N(C)C(=O)Oc3ccc(F)cc3)C2)CC1 (racemic) [Example 75, rac-{(3R,4S)-4-(3,4-Dichloro-phenyl)-1-[1-(2-methoxy-acetyl)-piperidine-4-carbonyl]-pyrrolidin-3-yl}-methyl-carbamic acid 4-fluoro-phenyl ester] | 0.6
 | CN(C(=O)Oc1ccc(F)cc1)[C@H]1CN(C(=O)C2CCN(C(=O)C3CCOCC3)CC2)C[C@@H]1c1ccc(Cl)c(Cl)c1 (racemic) [Example 76, rac-{(3R,4S)-4-(3,4-Dichloro-phenyl)-1-[1-(tetrahydro-pyran-4-carbonyl)-piperidine-4-carbonyl]-pyrrolidin-3-yl}-methyl-carbamic acid 4-fluoro-phenyl ester] | 0.7
 | CN(C(=O)Oc1ccc(F)cc1)[C@H]1CN(C(=O)C2CCN(C3CCOCC3)CC2)C[C@@H]1c1ccc(Cl)c(Cl)c1 (racemic) [Example 77, rac-{(3R,4S)-4-(3,4-Dichloro-phenyl)-1-[1-(tetrahydro-pyran-4-yl)-piperidine-4-carbonyl]-pyrrolidin-3-yl}-methyl-carbamic acid 4-fluoro-phenyl ester] | 1.5
 | CN(C(=O)Oc1ccc(F)cc1)[C@H]1CN(C(=O)C2CCN(c3nncs3)CC2)C[C@@H]1c1ccc(Cl)c(Cl)c1 (racemic) [Example 78, rac-[(3R,4S)-4-(3,4-Dichloro-phenyl)-1-(1-[1,3,4]thiadiazol-2-yl-piperidine-4-carbonyl)-pyrrolidin-3-yl]-methyl-carbamic acid 4-fluoro-phenyl ester] | 1.5
